From US20260042764A1, “COMPOSITIONS AND METHODS FOR INHIBITION OF KRAS” (TheRas, Inc., priority 2022, published 2026)

Tests used:
[1] = biological target: T1, Avi-KRAS WT (2-169) GTP/RAF1 RBD-3xFLAG (51-131) (Homo sapiens, UniProt P01116); test: Raf1-KRAS WT-GTP disruption HTRF assay (Biological Example 3); type: binding; details: KRAS WT, GTP-loaded
T1 construct: Avi-KRAS WT (2-169)
Outline: (§1)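 An HTRF assay measured disruption of 50 nM Avi-KRAS (2-169)-GTP (WT, G12C, G12D or G12V) bound to RAF1 RBD-3xFLAG (51-131). Buffer was Tris pH 7.5 with 5 mM MgCl2 and 10% DMSO. Compounds (30–0.005 μM, 3-fold, 10 points) were incubated 1 h at room temperature, and activity is given as % of DMSO.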

[2] = biological target: T2, Avi-KRAS WT (1-169) GppNHp/RAF1 RBD-3xFLAG (52-151) (Homo sapiens, UniProt P01116); test: Raf1-KRAS WT-GppNHP disruption HTRF assay (Biological Example 1); type: binding; details: KRAS WT-GppNHp/RAF1 RBD HTRF
T2 construct: Avi-KRAS WT (1-169)
Outline: (§2)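 Compounds were tested for disruption of KRAS–RAF1 RBD binding by HTRF in 50 mM Tris pH 7.5, 100 mM NaCl, 5 mM MgCl2, 0.1% BSA, 0.01% Tween, 10% DMSO. Protein mix was incubated 1 h at room temperature with shaking, then detection reagents added for another 1 h. Activity expressed as percent of DMSO control.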

[3] = biological target: T3, Avi-KRAS G12V (2-169) GTP/RAF1 RBD-3xFLAG (51-131) (Homo sapiens, UniProt P01116, G12V); test: Raf1-KRAS G12V-GTP disruption HTRF assay (Biological Example 3); type: binding; details: KRAS G12V, GTP-loaded
T3 construct: Avi-KRAS G12V (2-169)
Outline: as §1

[4] = test system: GP2d cells (KRAS G12D); test: Cell-based pERK HTRF assay in GP2d cell (Biological Example 2); details: GP2d (KRAS G12D) cells
Outline: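 HTRF read-out of pERK (excitation 320 nm, emission 615 nm) after lysates sat 4–24 h at room temperature with Eu cryptate and d2 antibodies.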

[5] = biological target: T4, Avi-KRAS G12R (1-169) GppNHp/RAF1 RBD-3xFLAG (52-151) (Homo sapiens, UniProt P01116, G12R); test: Raf1-KRAS G12R-GppNHP disruption HTRF assay (Biological Example 1); type: binding; details: KRAS G12R-GppNHp/RAF1 RBD HTRF
T4 construct: Avi-KRAS G12R (1-169)
Outline: as §2

[6] = biological target: T5, Avi-KRAS G12V (1-169) GppNHp/RAF1 RBD-3xFLAG (52-151) (Homo sapiens, UniProt P01116, G12V); test: Raf1-KRAS G12V-GppNHP disruption HTRF assay (Biological Example 1); type: binding; details: KRAS G12V-GppNHp/RAF1 RBD HTRF
T5 construct: Avi-KRAS G12V (1-169)
Outline: as §2

T1 sequence (P01116 2-169 isoform P01116-2): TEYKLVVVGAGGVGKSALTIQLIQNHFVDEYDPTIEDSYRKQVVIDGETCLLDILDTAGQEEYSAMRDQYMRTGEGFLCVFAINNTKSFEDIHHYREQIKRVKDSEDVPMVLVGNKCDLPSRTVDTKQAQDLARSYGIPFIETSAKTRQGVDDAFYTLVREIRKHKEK
T3 sequence (P01116 2-169 isoform P01116-2 G12V): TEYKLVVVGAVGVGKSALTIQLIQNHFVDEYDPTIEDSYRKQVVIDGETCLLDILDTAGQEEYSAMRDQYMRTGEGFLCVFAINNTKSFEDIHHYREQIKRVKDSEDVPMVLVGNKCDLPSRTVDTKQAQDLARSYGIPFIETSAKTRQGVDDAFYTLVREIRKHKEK
T2 sequence (P01116 1-169 isoform P01116-2): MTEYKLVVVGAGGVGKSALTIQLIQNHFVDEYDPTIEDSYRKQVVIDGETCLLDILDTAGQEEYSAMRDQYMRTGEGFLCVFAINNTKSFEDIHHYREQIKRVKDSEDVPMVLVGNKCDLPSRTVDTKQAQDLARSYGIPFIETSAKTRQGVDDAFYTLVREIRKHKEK
T5 sequence (P01116 1-169 isoform P01116-2 G12V): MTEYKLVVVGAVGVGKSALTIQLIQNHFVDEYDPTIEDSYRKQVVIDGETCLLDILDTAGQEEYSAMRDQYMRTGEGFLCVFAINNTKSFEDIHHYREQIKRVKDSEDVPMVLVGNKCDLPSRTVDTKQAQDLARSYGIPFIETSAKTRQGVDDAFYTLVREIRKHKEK
T4 sequence (P01116 1-169 isoform P01116-2 G12R): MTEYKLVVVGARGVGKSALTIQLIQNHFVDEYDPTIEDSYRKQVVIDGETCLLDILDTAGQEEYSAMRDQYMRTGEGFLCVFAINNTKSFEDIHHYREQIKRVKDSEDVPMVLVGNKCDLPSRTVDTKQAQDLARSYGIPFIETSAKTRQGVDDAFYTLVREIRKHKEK

| Compound | IC50 [1] | IC50 [2] | IC50 [3] | IC50 ([4]; GP2d) | IC50 ([4]; GP2d, pERK HTRF) | IC50 [5] | IC50 [6] | IC50 ([4]; pERK HTRF) | IC50 [4] |
| --- | --- | --- | --- | --- | --- | --- | --- | --- | --- |
| CCN(c1nc(OC[C@@]23CCCN2C[C@H](F)C3)nc2c(F)c(-c3ccc(F)c4sc(N)c(C#N)c34)c(C(F)(F)F)cc12)[C@@H]1C[C@H]2CCC(=O)N2C1 (atropisomer, axis not shown) [Compound 532] | 100 to 1000 nM | 100 to 1000 nM | 100 to 1000 nM | < 100 nM | < 100 nM | 100 to 1000 nM | 100 to 1000 nM |  |  |
| CN(C)C(=O)c1nn2c(c1Cl)CN(c1nc(OC[C@@]34CCCN3C[C@H](F)C4)nc3c(F)c(-c4ccc(F)c5sc(N)c(C#N)c45)c(C(F)(F)F)cc13)CC2 [Compound 517] | 100 to 1000 nM | 100 to 1000 nM | 100 to 1000 nM | < 100 nM | < 100 nM | < 100 nM | < 100 nM |  |  |
| CCC(=O)N1C[C@H](N(CC)c2nc(OC[C@@]34CCCN3C[C@H](F)C4)nc3c(F)c(-c4ccc(F)c5sc(N)c(C#N)c45)c(C(F)(F)F)cc23)C[C@@H]1C (atropisomer, axis not shown) [Compound 533] | 100 to 1000 nM | 100 to 1000 nM | 100 to 1000 nM | < 100 nM | < 100 nM | 100 to 1000 nM | 100 to 1000 nM |  |  |
| Cc1c(C(=O)N(C)C)nn2c1CN(c1nc(OC[C@@]34CCCN3C[C@H](F)C4)nc3c(F)c(-c4ccc(F)c5sc(N)c(C#N)c45)c(C(F)(F)F)cc13)CC2 [Compound 501] | 100 to 1000 nM | 100 to 1000 nM | 100 to 1000 nM | < 100 nM | < 100 nM | < 100 nM | 100 to 1000 nM |  |  |
| CCN(c1nc(OC[C@@]23CCCN2C[C@H](F)C3)nc2c(F)c(-c3ccc(F)c4sc(N)c(C#N)c34)c(C(F)(F)F)cc12)[C@@H]1CC(=O)N(C)C1 [Compound 520] | 100 to 1000 nM | 100 to 1000 nM | 100 to 1000 nM | < 100 nM | < 100 nM | 100 to 1000 nM | 100 to 1000 nM |  |  |
| CCN(c1nc(OC[C@@]23CCCN2C[C@H](F)C3)nc2c(F)c(-c3ccc(F)c4sc(N)c(C#N)c34)c(C(F)(F)F)cc12)[C@@H]1C[C@@H]2CCC(=O)N2C1 [Compound 511] | 100 to 1000 nM | 100 to 1000 nM | 1000 to 10000 nM | < 100 nM | < 100 nM | 1000 to 10000 nM | 100 to 1000 nM |  |  |
| CCN(c1nc(OC[C@@]23CCCN2C[C@H](F)C3)nc2c(F)c(-c3ccc(F)c4sc(N)c(C#N)c34)c(C(F)(F)F)cc12)[C@@H]1C[C@H](C)N(C(C)=O)C1 (atropisomer, axis not shown) [Compound 534] | 100 to 1000 nM | 100 to 1000 nM | 100 to 1000 nM | < 100 nM | < 100 nM | 100 to 1000 nM | 100 to 1000 nM |  |  |
| N#Cc1c(N)sc2c(F)ccc(-c3c(C(F)(F)F)cc4c(N5CCn6nc(N7CCOCC7)cc6C5)nc(OC[C@@]56CCCN5C[C@H](F)C6)nc4c3F)c12 [Compound 485] |  | 1000 to 10000 nM |  |  | < 100 nM | 1000 to 10000 nM | 1000 to 10000 nM |  |  |
| CCOC(=O)N1CC[C@H](N(CC)c2nc(OC[C@@]34CCCN3C[C@H](F)C4)nc3c(F)c(-c4ccc(F)c5sc(N)c(C#N)c45)c(C(F)(F)F)cc23)C1 [Compound 467] |  | 100 to 1000 nM |  |  | < 100 nM | < 100 nM | < 100 nM |  |  |
| CCN(c1nc(OC[C@@]23CCCN2C[C@H](F)C3)nc2c(F)c(-c3ccc(F)c4sc(N)c(C#N)c34)c(C(F)(F)F)cc12)[C@H]1CCN(C(=O)N(C)C)C1 (atropisomer, axis not shown) [Compound 540, (3S)-3-[[7-(2-amino-3-cyano-7-fluoro-benzothiophen-4-yl)-8-fluoro-2-[[(2R,8S)-2-fluoro-1,2,3,5,6,7-hexahydropyrrolizin-8-yl]methoxy]-6-(trifluoromethyl)quinazolin-4-yl]-ethyl-amino]-N,N-dimethyl-pyrrolidine-1-carboxamide] | 100 to 1000 nM |  | ≤ 100 nM | < 100 nM |  |  |  |  |  |
| Cc1cc2n(n1)CCN(c1nc(OCC34CCCN3CC(F)C4)nc3c(F)c(-c4ccc(F)c5sc(N)c(C#N)c45)c(C(F)(F)F)cc13)C2 (stereo not shown) [Compound 484] |  | 1000 to 10000 nM |  |  | < 100 nM | 1000 to 10000 nM | 1000 to 10000 nM |  |  |
| CCN(c1nc(OC[C@@]23CCCN2C[C@H](F)C3)nc2c(F)c(-c3ccc(F)c4sc(N)c(C#N)c34)c(C(F)(F)F)cc12)[C@H]1CCN(C(=O)C(C)C)C1 (atropisomer, axis not shown) [Compound 468] |  | > 10000 nM |  |  |  | > 10000 nM | > 10000 nM | 100 to 1000 nM |  |

Results, then the compound that gave them:

| IC50 [1] | IC50 [2] | IC50 [3] | IC50 ([4]; GP2d) | IC50 ([4]; GP2d, pERK HTRF) | IC50 [5] | IC50 [6] | IC50 ([4]; pERK HTRF) | IC50 [4] | Compound |
| --- | --- | --- | --- | --- | --- | --- | --- | --- | --- |
| ≤ 100 nM | < 100 nM | ≤ 100 nM | < 100 nM |  | < 100 nM | < 100 nM | < 100 nM |  | CCN(c1nc(OC[C@@]23CCCN2C[C@H](F)C3)nc2c(F)c(-c3ccc(F)c4sc(N)c(C#N)c34)c(C(F)(F)F)cc12)[C@@H]1CCN(C(=O)C2CC2)[C@@H]1C (atropisomer, axis not shown) [Compound 524] |
| ≤ 100 nM | < 100 nM | ≤ 100 nM | < 100 nM | < 100 nM | < 100 nM | < 100 nM |  |  | CCN(c1nc(OC[C@@]23CCCN2C[C@H](F)C3)nc2c(F)c(-c3ccc(F)c4sc(N)c(C#N)c34)c(C(F)(F)F)cc12)[C@H]1CCN(C(=O)C(C)C)C1 (single isomer, unassigned) [Compound 469] |
|  | < 100 nM |  |  | < 100 nM | < 100 nM | < 100 nM |  |  | CCN(c1nc(OC[C@@]23CCCN2C[C@H](F)C3)nc2c(F)c(-c3ccc(F)c4sc(N)c(C#N)c34)c(C(F)(F)F)cc12)[C@H]1C[C@H](C)N(C(=O)C2CC2)C1 [Compound 470] |
| 100 to 1000 nM | < 100 nM | ≤ 100 nM |  |  | < 100 nM | < 100 nM | < 100 nM | < 100 nM | CCN(c1nc(OC[C@@]23CCCN2C[C@H](F)C3)nc2c(F)c(-c3ccc(F)c4sc(N)c(C#N)c34)c(C(F)(F)F)cc12)[C@H]1CCN(C(=O)OC)C1 (atropisomer, axis not shown) [Compound 541, methyl(3S)-3-[[7-(2-amino-3-cyano-7-fluoro-benzothiophen-4-yl)-8-fluoro-2-[[(2R,8S)-2-fluoro-1,2,3,5,6,7-hexahydropyrrolizin-8-yl]methoxy]-6-(trifluoromethyl)quinazolin-4-yl]-ethyl-amino]pyrrolidine-1-carboxylate] |
| 100 to 1000 nM | < 100 nM | ≤ 100 nM | < 100 nM | < 100 nM | < 100 nM | < 100 nM |  |  | CCN(c1nc(OC[C@@]23CCCN2C[C@H](F)C3)nc2c(F)c(-c3ccc(F)c4sc(N)c(C#N)c34)c(C(F)(F)F)cc12)[C@H]1C[C@H](C)N(C(=O)COC)C1 (atropisomer, axis not shown) [Compound 538] |
| 100 to 1000 nM | < 100 nM | 100 to 1000 nM | < 100 nM | < 100 nM | < 100 nM | < 100 nM |  |  | CCN(c1nc(OC[C@@]23CCCN2C[C@H](F)C3)nc2c(F)c(-c3ccc(F)c4sc(N)c(C#N)c34)c(C(F)(F)F)cc12)[C@H]1C[C@H](C)N(C(=O)C2COC2)C1 (atropisomer, axis not shown) [Compound 539] |
| 100 to 1000 nM | < 100 nM | 100 to 1000 nM | < 100 nM | < 100 nM | < 100 nM | 100 to 1000 nM |  |  | CCN(c1nc(OC[C@@]23CCCN2C[C@H](F)C3)nc2c(F)c(-c3ccc(F)c4sc(N)c(C#N)c34)c(C(F)(F)F)cc12)[C@H]1C[C@@H]2COC(=O)N2C1 (atropisomer, axis not shown) [Compound 519] |
|  | < 100 nM |  |  |  | < 100 nM | 100 to 1000 nM | < 100 nM |  | CCN(c1nc(OC[C@@]23CCCN2C[C@H](F)C3)nc2c(F)c(-c3ccc(F)c4sc(N)c(C#N)c34)c(C(F)(F)F)cc12)[C@H]1CCS(=O)(=O)C1 (atropisomer, axis not shown) [Compound 492] |
